From PMC9027176 (Viruses, 2022)
Where no end group is shown, it is not given here.

Target: KsBcl-2 (Human herpesvirus 8 type P, UniProt F5HGJ3, V117A)
Assay: biochemical
Type: binding, Kaposi's sarcoma-associated herpesvirus
Settings: not given

KsBcl-2, sequence (F5HGJ3 1-146 V117A): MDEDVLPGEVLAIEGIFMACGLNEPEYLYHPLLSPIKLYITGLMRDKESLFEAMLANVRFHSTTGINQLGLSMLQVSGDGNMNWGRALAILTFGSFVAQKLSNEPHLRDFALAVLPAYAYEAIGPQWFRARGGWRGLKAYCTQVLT

Question: With PAELEVECATQLRRFGDKLNFRQKLL [Noxa] as the compound, how does the IC50 read?
Answer: 0.22 µM

Same assay, conditions: SEM

Question: For CC[C@H](C)[C@H](NC(=O)[C@H](CC(N)=O)NC(=O)[C@H](CCCNC(=N)N)NC(=O)[C@@H](NC(=O)[C@@H](NC(=O)[C@H](CC(=O)O)NC(=O)[C@H](CCC(=O)O)NC(=O)[C@H](CCC(N)=O)NC(=O)[C@H](CO)NC(=O)[C@H](CCC(=O)O)NC(=O)[C@@H](N)CO)[C@@H](C)CC)[C@@H](C)CC)C(=O)N[C@@H](C)C(=O)N[C@@H](CCCNC(=N)N)C(=O)N[C@@H](Cc1c[nH]cn1)C(=O)N[C@@H](CC(C)C)C(=O)N[C@@H](C)C(=O)N[C@@H](CCC(N)=O)C(=O)N[C@H](C(=O)NCC(=O)N[C@@H](CC(=O)O)C(=O)N[C@@H](CO)C(=O)N[C@@H](CCSC)C(=O)N[C@@H](CC(=O)O)C(=O)N[C@@H](CCCNC(=N)N)C(=O)N[C@@H](CO)C(=O)N[C@H](C(=O)N1CCC[C@H]1C(=O)N1CCC[C@H]1C(=O)NCC(=O)N[C@@H](CC(C)C)C(=O)N[C@H](C(=O)N[C@@H](CC(N)=O)C(=O)NCC(=O)N[C@@H](CC(C)C)C(=O)O)C(C)C)[C@@H](C)CC)C(C)C [Bid], which IC50 is on record?
Answer: 0.02 ± 0.009 µM

Question: With CC[C@H](C)[C@H](NC(=O)[C@H](CS)NC(=O)[C@H](C)NC(=O)[C@H](CC(C)C)NC(=O)[C@H](CCCNC(=N)N)NC(=O)[C@H](CC(C)C)NC(=O)[C@H](C)NC(=O)[C@H](CC(C)C)NC(=O)[C@H](C)NC(=O)[C@H](CC(=O)O)NC(=O)[C@H](CO)NC(=O)CNC(=O)[C@H](CCC(=O)O)NC(=O)[C@@H](N)CCSC)C(=O)NCC(=O)N[C@@H](CC(=O)O)C(=O)N[C@@H](CCC(=O)O)C(=O)N[C@@H](CCSC)C(=O)N[C@@H](CC(=O)O)C(=O)N[C@H](C(=O)N[C@@H](CO)C(=O)N[C@@H](CC(C)C)C(=O)N[C@@H](CCCNC(=N)N)C(=O)N[C@@H](C)C(=O)N1CCC[C@H]1C(=O)O)C(C)C [Bik] as the compound, how does the IC50 read?
Answer: 0.064 ± 0.004 µM

Question: For CC[C@H](C)[C@H](NC(=O)[C@H](CCC(=O)O)NC(=O)[C@H](CCCN=C(N)N)NC(=O)[C@H](C)NC(=O)[C@H](Cc1c[nH]c2ccccc12)NC(=O)[C@H](CCC(N)=O)NC(=O)[C@H](CCC(=O)O)NC(=O)[C@@H](N)CCC(=O)O)C(=O)NCC(=O)N[C@@H](C)C(=O)N[C@@H](CCC(N)=O)C(=O)N[C@@H](CC(C)C)C(=O)N[C@@H](CCCN=C(N)N)C(=O)N[C@@H](CCCN=C(N)N)C(=O)N[C@@H](CCSC)C(=O)N[C@@H](C)C(=O)N[C@@H](CC(=O)O)C(=O)N[C@@H](CC(=O)O)C(=O)N[C@@H](CC(C)C)C(=O)N[C@@H](CC(N)=O)C(=O)N[C@@H](C)C(=O)N[C@@H](CCC(N)=O)C(=O)N[C@@H](Cc1ccc(O)cc1)C(=O)N[C@@H](CCC(=O)O)C(=O)N[C@@H](CCCN=C(N)N)C(=O)N[C@@H](CCCN=C(N)N)C(=O)O [Puma], which IC50 is on record?
Answer: 0.026 ± 0.009 µM

Question: How did the IC50 turn out when PSSTMGQVGRQLAIIGDDINRRYDSE [Bak] was run?
Answer: 0.008 µM

Question: VPGRLAEVCAVLLRLGDELEMIRPSV [Bok] was tested. Which IC50 did it give?
Answer: 0.198 ± 0.013 µM

Question: How did the IC50 turn out when VPQDASTKKLSECLKRIGDELDSNMELQ [Bax] was run?
Answer: 0.016 µM
